{"source": "patent US9156848B2", "about": "“Treating diabetes with dipeptidyl peptidase-IV inhibitors” (Merck Sharp & Dohme Corp., priority 2012, dated 2015)", "key": {"[1]": {"biological_target": "dipeptidyl peptidase-IV enzyme (DPP-4) (Homo sapiens (Human), UniProt P27487)", "sequence (P27487 29-766)": "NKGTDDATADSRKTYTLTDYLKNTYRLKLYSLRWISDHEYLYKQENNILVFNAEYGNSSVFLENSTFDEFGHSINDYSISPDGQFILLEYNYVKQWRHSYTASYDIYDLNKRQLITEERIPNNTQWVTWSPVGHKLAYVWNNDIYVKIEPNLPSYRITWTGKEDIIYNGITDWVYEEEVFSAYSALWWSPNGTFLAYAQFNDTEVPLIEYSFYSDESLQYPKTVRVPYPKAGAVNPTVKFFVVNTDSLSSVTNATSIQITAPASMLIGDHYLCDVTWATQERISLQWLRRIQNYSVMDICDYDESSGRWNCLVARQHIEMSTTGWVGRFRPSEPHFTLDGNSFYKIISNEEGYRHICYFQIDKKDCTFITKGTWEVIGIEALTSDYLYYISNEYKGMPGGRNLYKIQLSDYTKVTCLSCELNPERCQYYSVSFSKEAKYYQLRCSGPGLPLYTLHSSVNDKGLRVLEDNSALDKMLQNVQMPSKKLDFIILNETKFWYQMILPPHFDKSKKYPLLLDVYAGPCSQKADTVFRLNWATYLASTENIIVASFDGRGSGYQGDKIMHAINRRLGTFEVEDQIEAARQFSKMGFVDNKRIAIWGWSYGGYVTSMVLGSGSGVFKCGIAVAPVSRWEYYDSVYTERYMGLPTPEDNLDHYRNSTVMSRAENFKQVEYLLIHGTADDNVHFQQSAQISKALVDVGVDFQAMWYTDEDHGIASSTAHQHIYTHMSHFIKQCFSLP", "assay": "continuous fluorometric assay with substrate Gly-Pro-AMC (DPP-4 inhibition)", "type": "biochemical", "details": "soluble human DPP-4, 50 μM Gly-Pro-AMC, pH 7.5, room temperature", "description": "Inhibition constants are determined as follows. A continuous fluorometric assay is employed with the substrate Gly-Pro-AMC, which is cleaved by DPP-4 to release the fluorescent AMC leaving group. […] A typical reaction contains approximately 50 pM enzyme, 50 μM Gly-Pro-AMC, and buffer (100 mM HEPES, pH 7.5, 0.1 mg/ml BSA) in a total reaction volume of 100 μL. Liberation of AMC is monitored continuously in a 96-well plate fluorometer using an excitation wavelength of 360 nm and an emission wavelength of 460 nm. Under these conditions, approximately 0.8 μM AMC is produced in 30 minutes at 25 degrees C. The enzyme used in these studies was soluble (transmembrane domain and cytoplasmic extension excluded) human protein produced in a baculovirus expression system (Bac-To-Bac, Gibco BRL). […] To measure the dissociation constants for compounds, solutions of inhibitor in DMSO were added to reactions containing enzyme and substrate (final DMSO concentration is 1%). All experiments were conducted at room temperature using the standard reaction conditions described above. To determine the dissociation constants (Ki), reaction rates were fit by non-linear regression to the Michaelis-Menton equation for competitive inhibition."}, "cardiac allograft": {"tested_on": "cardiac allograft", "details": "rats; survival doubled from day 7; cited from earlier work"}, "hematopoiesis": {"tested_on": "hematopoiesis", "details": "mouse, cyclophosphamide-induced neutropenia; cited from earlier work"}, "DPP-4": {"biological_target": "DPP-4 (Homo sapiens (Human), UniProt P27487)", "sequence (P27487 39-766, species assumed)": "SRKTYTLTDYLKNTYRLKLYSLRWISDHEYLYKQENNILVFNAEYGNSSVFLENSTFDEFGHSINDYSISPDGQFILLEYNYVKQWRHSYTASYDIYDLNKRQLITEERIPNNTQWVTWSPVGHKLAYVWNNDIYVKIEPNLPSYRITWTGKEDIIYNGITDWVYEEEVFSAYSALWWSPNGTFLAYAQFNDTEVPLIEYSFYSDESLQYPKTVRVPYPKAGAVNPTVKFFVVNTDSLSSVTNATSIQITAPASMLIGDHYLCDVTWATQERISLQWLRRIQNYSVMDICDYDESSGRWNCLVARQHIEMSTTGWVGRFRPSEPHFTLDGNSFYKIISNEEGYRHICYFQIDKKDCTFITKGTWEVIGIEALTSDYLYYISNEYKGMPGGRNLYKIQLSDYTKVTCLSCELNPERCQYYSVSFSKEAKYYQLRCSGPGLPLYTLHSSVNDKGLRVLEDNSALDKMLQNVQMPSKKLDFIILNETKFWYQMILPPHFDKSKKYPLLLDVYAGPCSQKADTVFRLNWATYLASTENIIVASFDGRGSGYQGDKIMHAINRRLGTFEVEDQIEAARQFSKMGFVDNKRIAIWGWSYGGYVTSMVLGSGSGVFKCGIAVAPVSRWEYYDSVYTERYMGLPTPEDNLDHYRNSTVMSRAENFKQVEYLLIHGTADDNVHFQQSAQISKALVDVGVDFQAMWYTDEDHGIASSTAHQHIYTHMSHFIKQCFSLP", "details": "cited from earlier work"}}, "data": [{"smiles": "Cc1ccc(S(=O)(=O)N=S(C)(=O)n2cc3c(n2)CN([C@H]2CO[C@H](c4cc(F)ccc4F)[C@@H](N)C2)C3)cc1", "note": "(stereo partly drawn) [Example 1]", "values": [{"measurement": "IC50", "setting": "[1]", "result": 0.0185, "unit": "µM"}]}, {"smiles": "C[C@]1(N2Cc3cn(S(C)(=O)=O)nc3C2)CO[C@H](c2cc(F)ccc2F)[C@@H](N)C1", "note": "[Example 3]", "values": [{"measurement": "IC50", "setting": "[1]", "result": 0.037, "unit": "µM"}]}, {"smiles": "C[C@]1(N2Cc3cn(S(=O)(=O)NC(=O)OCc4ccccc4)nc3C2)CO[C@H](c2cc(F)ccc2F)[C@@H](N)C1", "note": "[Example 4]", "values": [{"measurement": "IC50", "setting": "[1]", "result": 0.0088, "unit": "µM"}]}, {"smiles": "CC(C)N1CCC(c2ccccc2)(c2ccccc2)CC1", "note": "[Prodipine, Pro-Pro-diphenyl-phosphonate]", "values": [{"measurement": "cardiac allograft survival", "setting": "cardiac allograft", "result": 14, "unit": "day"}]}, {"smiles": "CC(C)[C@H](N)C(=O)N1CCC[C@H]1B(O)O", "note": "[Val-Boro-Pro]", "values": [{"measurement": "hematopoiesis", "setting": "hematopoiesis", "result": "stimulated hematopoiesis"}]}, {"smiles": "CC[C@H](C)[C@H](N)C(=O)N1CCC[C@H]1C(=O)N[C@H](C(=O)O)[C@@H](C)CC", "note": "[diprotin A]", "values": [{"measurement": "degradation of GRF to GRF[3-44] in plasma", "setting": "DPP-4", "result": "prevented"}]}]}
